Data: patent US20090280160A1, “PHENYLEPHRINE PHARMACEUTICAL FORMULATIONS AND COMPOSITIONS FOR TRANSMUCOSAL ABSORPTION” (Schering-Plough Healthcare Products, Inc., priority 2007, published 2009)
Entries after “also recorded” stand apart in the source; their conditions may differ.

Tests used:
α1a adrenoreceptor [1] = molecular target: T1, α1a adrenoreceptor (Homo sapiens, UniProt P35348); test: Cellular calcium flux (FLIPR), α1a expressing CHO cells; assay type: cell-based; details: for increase in intracellular calcium, α1a calcium assay (in words): α1a expressing CHO cells
T1 construct: expressed in transfected cells
T1 sequence (P35348 1-466): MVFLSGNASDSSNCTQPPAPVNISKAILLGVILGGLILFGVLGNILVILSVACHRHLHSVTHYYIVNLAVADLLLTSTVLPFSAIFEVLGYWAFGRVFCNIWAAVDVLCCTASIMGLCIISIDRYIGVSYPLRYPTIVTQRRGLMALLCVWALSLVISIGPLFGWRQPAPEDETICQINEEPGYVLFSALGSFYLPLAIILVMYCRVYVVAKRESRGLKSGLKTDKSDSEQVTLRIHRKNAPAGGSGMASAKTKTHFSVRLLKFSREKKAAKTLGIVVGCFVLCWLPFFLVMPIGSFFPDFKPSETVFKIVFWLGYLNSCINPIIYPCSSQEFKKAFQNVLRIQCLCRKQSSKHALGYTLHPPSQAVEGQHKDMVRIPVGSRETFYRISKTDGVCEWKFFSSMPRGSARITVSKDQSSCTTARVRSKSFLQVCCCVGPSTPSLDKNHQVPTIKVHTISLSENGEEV
Experimental: (§1) The affinity and activity of phenylephrine metabolites were evaluated in human recombinant α1 and α2 adrenoreceptor binding and activity assays. […] Affinity of the metabolites was determined by receptor binding assays. Functional activity of the metabolites was assessed using an [^35S]-GTPγS binding exchange assay for the α2 receptor subtypes and a cell-based calcium flux response for the α1 receptor subtypes.
Intracellular calcium levels were measured using a fluorometric imaging plate reader (FLIPR). Cells expressing α1 adrenoreceptors were cultured overnight at 15,000 cells/well in 96 well black-wall clear bottom plates (Packard). Adherent cells were loaded for 1 hour at 37° C. using the FLIPR Calcium Plus Assay Kit (Molecular Probes, Eugene, Oreg.), which included 2.5 mM probenecid (Sigma). Compounds (at 10 mM in 100% DMSO) were diluted in diluting buffer (HBSS, 20 mM HEPES, 2.5 mM probenecid, 0.5% BSA, pH 7.4). A titration of norepinephrine was included in every experiment and norepinephrine (at 1 μM) was also used as a plate standard on each assay plate. Cells were maintained at 37° C. throughout all calcium measurements. Fluorescence data was collected at 1 second interval for 60 seconds, followed by collection at 2 second intervals for 30 seconds. Background fluorescence was quantitated in wells containing cells with no additions and was subtracted from all experimental samples. All conditions were done in quadruplicate. Non-linear regression analysis using GraphPad Prism was used to calculate EC50 values.
(§2) Each metabolite was evaluated in each assay in at least 2 independent experiments and a representative assay of each metabolite/assay combination is shown.

α1a adrenoreceptor [2] = molecular target: T1, α1a adrenoreceptor; test: Competition binding, [3H]-prazosin, α1a CHO cell membranes
α2a adrenoreceptor = molecular target: T2, α2a adrenoreceptor (Homo sapiens, UniProt P08913); test: [35S]-GTPγS binding exchange, α2a CHO cell membranes; assay type: biochemical; details: for stimulation of [35S]-GTPγS binding, α2a (in words): CHO cell membranes
T2 construct: expressed in transfected cells; host or cells: CHO (Chinese hamster ovary) cells, membranes
T2 sequence (P08913 1-465): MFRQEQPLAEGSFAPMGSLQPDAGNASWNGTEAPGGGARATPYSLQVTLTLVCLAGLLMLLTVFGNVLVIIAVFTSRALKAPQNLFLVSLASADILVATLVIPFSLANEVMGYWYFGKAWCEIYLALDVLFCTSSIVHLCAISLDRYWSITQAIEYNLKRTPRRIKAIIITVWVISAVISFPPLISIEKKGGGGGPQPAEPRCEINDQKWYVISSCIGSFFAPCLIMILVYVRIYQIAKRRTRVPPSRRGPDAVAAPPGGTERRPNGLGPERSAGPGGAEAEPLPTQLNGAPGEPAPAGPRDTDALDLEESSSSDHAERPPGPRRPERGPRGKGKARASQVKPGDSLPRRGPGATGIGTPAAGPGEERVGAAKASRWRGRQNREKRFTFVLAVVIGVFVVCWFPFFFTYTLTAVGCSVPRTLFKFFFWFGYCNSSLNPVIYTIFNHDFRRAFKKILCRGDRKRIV
Experimental: as §1
(§3) Plates were counted on a Packard TopCount. The percent increase over basal binding of [^35S]-GTPγS, a measure of efficacy, was calculated as follows: 100×[[mean total sample cpm−basal cpm]÷by basal cpm]. Basal cpm was defined as the mean cpm in the absence of agonist compound minus the mean non-specific binding cpm.
as §2

α2c adrenoreceptor [3] = molecular target: T3, α2c adrenoreceptor (Homo sapiens, UniProt P18825); test: [35S]-GTPγS binding exchange, α2c CHO cell membranes; assay type: biochemical; details: for stimulation of [35S]-GTPγS binding, α2c (in words): CHO cell membranes
T3 construct: expressed in transfected cells; host or cells: CHO (Chinese hamster ovary) cells, membranes
T3 sequence (P18825 1-462): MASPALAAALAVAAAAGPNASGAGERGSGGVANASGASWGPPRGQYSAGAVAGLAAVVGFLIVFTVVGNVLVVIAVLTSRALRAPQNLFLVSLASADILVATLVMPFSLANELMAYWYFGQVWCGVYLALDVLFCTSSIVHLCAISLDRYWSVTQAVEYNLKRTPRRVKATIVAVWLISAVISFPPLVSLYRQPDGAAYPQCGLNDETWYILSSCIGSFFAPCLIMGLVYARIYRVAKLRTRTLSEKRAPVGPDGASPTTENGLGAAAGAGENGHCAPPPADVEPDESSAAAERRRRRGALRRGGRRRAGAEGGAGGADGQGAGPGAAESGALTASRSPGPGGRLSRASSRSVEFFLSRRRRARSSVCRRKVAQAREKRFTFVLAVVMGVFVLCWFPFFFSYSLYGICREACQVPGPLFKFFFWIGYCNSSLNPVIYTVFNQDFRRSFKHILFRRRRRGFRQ
Experimental: as §1
as §3, with “Assay buffer was 75 mM Tris-HCl pH 7.4, 12.5 mM MgCl2, 2 mM EDTA and 1 μM GDP. Plates” for “Plates”
as §2

α2c adrenoreceptor [4] = molecular target: T3, α2c adrenoreceptor; test: Competition binding, [3H]-UK14304, α2c CHO cell membranes; details: for inhibition of [3H]-UK14304 binding, α2c (in words): CHO cell membranes
Experimental: as §1
Competition Binding Assays
Competition binding assays for the α2 adrenoreceptors were performed using 20 μg membrane protein per well in binding buffer (75 mM Tris-HCl pH 7.4, 12.5 mM MgCl2, […] EDTA, 0.2% bovine serum albumin). […] Binding was terminated by rapid filtration through GF/C unifilter plates, presoaked with 0.3% polyethylenimine, with five washes with 0.5 ml cold 50 mM Tris-HCl ph 7.4, using a Packard Filtermate Harvester. After drying, bound radioactivity was determined by liquid scintillation counting (Packard TopCount) with Microscint 20, 50 μl/well. Binding data were analyzed using GraphPad Prism.
as §2

[5] = listed as PE glucuronide batch 4
[6] = highest concentration evaluated (10 μM)

Which results are given for `CNC[C@H](O)c1cccc(O[C@@H]2O[C@H](C(=O)O)[C@@H](O)[C@H](O)[C@H]2O)c1` [PE glucuronide, (R)-PE glucuronide]?
fold less potent than PE in inducing a calcium increase, α1a cells (α1a adrenoreceptor [1]; batch b4, approximately 0.28% PE): 300-450 fold; increase in intracellular calcium, α1a calcium assay (in words) (α1a adrenoreceptor [1]): consistent with level of contaminating phenylephrine; also recorded: pharmacologically inactive; increase in intracellular calcium, α1a calcium assay (in words) (α1a adrenoreceptor [1]; [5]): minimal activity; inhibition of 3H-prazosin binding, α1a (in words) (α1a adrenoreceptor [2]; CHO cell membranes): No appreciable binding; also recorded: no binding affinity; also recorded: pharmacologically inactive; stimulation of [35S]-GTPγS binding, α2a (in words) (α2a adrenoreceptor): nor did it activate binding; also recorded: pharmacologically inactive; activity in α2a [35S]-GTPγS assay (in words) (α2a adrenoreceptor; highest concentration, 100 μM): very weak binding; stimulation of [35S]-GTPγS binding, α2c (in words) (α2c adrenoreceptor [3]): nor did it activate binding; also recorded: pharmacologically inactive; stimulation of [35S]-GTPγS binding, α2c (in words) (α2c adrenoreceptor [3]; listed as PE glucuronide b2): No stimulatory activity; inhibition of [3H]-UK14304 binding, α2c (in words) (α2c adrenoreceptor [4]): weakly inhibits binding; also recorded: pharmacologically inactive; inhibition of [3H]-UK14304 binding, α2c (in words) (α2c adrenoreceptor [4]; listed as PE glucuronide b4): A small amount of binding; inhibition of [3H]-UK14304 binding, α2c (in words) (α2c adrenoreceptor [4]; [5]): minimal activity

`O=C(O)C(O)c1cccc(O)c1` (stereo not shown) [3-hydroxymandelic acid] was tested. Which “agonist activity, α1a calcium assay (in words)” value (α1a adrenoreceptor [1]; [6]) did it give?
Its value is “no activity”.

What about the “increase in intracellular calcium, α1a calcium assay (in words)” value (α1a adrenoreceptor [1]) of the same compound?
Its value is “not active”.

What about the EC50 (α1a adrenoreceptor [1]; α1a-expressing CHO cells, read-out: EC50, a1a Calcium (class symbol)) of the same compound?
The EC50 was > 10 µM.

And the Ki (α1a adrenoreceptor [2]; [3H]-prazosin, read-out: Ki, a1a Binding (class symbol))?
The Ki was > 100 µM.

And the “binding / affinity, α1a receptor (in words)” value (α1a adrenoreceptor [2]; concentrations up to 100 μM)?
The value was “No appreciable binding; also recorded: no affinity”.

And the “stimulation of [35S]-GTPγS binding, α2a (in words)” value (α2a adrenoreceptor)?
Its value is “no activity”.

What about the “agonist activity, α2a [35S]-GTPγS assay (in words)” value (α2a adrenoreceptor; [6]) of the same compound?
Its value is “no activity”.

What about the EC50 (α2a adrenoreceptor; read-out: EC50, a2a GTPγS (class symbol)) of the same compound?
Its EC50 is > 10 µM.

And the “stimulation of [35S]-GTPγS binding, α2c (in words)” value (α2c adrenoreceptor [3])?
Its value is “no activity”.

And the “agonist activity, α2c [35S]-GTPγS assay (in words)” value (α2c adrenoreceptor [3]; [6])?
The value was “no activity”.

What about the EC50 (α2c adrenoreceptor [3]; read-out: EC50, a2c GTPγS (class symbol)) of the same compound?
The EC50 was > 10 µM.

And the “inhibition of [3H]-UK14304 binding, α2c (in words)” value (α2c adrenoreceptor [4])?
The value was “but not; also recorded: no significant binding”.

What about the Ki (α2c adrenoreceptor [4]; [3H]-UK14304, read-out: Ki, a2c Binding (class symbol)) of the same compound?
The Ki was > 100 µM.

And the “binding / affinity, α2c receptor (in words)” value (α2c adrenoreceptor [4]; at 100 μM (highest concentration evaluated))?
The value was “no affinity”.
